Experimental data: the NIST ThermoML archive (doi:10.1021/je034177v)

Experiment: molar heat capacity at constant pressure; xn = mol fraction of the nth substance listed
Conditions: 101 kPa, Liquid, Small sample (50 mg) DSC

ClCCCCCCl [1,5-dichloropentane] + CCCCCCCCCCCC
molar heat capacity at constant pressure [J/K/mol]
Conditions	283.15 K	288.15 K	293.15 K	298.15 K	303.15 K	308.15 K	313.15 K	318.15 K	323.15 K
x1 = 0.05237	359.49	361.46	363.6	365.89	368.28	370.79	373.41	376.07	378.83
x1 = 0.1014	351.13	353.16	355.31	357.53	359.81	362.28	364.84	367.48	370.16
x1 = 0.2008	334.84	336.79	338.81	340.93	343.08	345.47	347.87	350.35	352.88
x1 = 0.3039	318.47	320.33	322.17	324.17	326.18	328.38	330.63	332.93	335.27
x1 = 0.3945	304.32	305.98	307.85	309.6	311.52	313.55	315.68	317.86	320.07
x1 = 0.4983	288.13	289.64	291.34	293.02	294.78	296.69	298.58	300.38	302.59
x1 = 0.6014	271.74	273.2	274.79	276.35	277.97	279.71	281.49	283.32	285.18
x1 = 0.6987	256.4	257.78	259.23	260.76	262.21	263.83	265.47	267.13	268.85
x1 = 0.7975	240.83	242.08	243.45	244.78	246.18	247.69	249.17	250.73	252.27
x1 = 0.9021	224.47	225.7	226.92	228.16	229.39	230.74	232.08	233.47	234.85
x1 = 0.9497	217.25	218.41	219.54	220.73	221.9	223.14	224.4	225.7	227.02
x1 = 1	209.65	210.73	211.89	212.94	214.06	215.21	216.38	217.56	218.76
